Experimental data reported in PMC5007854, “β-Nitrostyrenes as Potential Anti-leishmanial Agents” (Frontiers in Microbiology, 2016).
Converted amounts (≈) assume the structure as drawn. Where two headings read alike, the source gives them in different places.

Tests used:
[1] = system: Aspergillus fumigatus ATCC 16424; assay: Broth microdilution antifungal susceptibility (MIC/MFC); type: cell-based; conditions: for MIC / MFC: Aspergillus fumigatus; for MIC: ATCC16424, 48 h, read-out: MIC, Af ATCC 16424; for MIC / MIC, Af ATCC 16424: broth microdilution, 35°C, 48 h; for MFC: ATCC16424, ≥99.9% reduction of original inoculum, read-out: MFC, Af ATCC 16424
How it was run: (§1)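 CLSI broth microdilution: Ca/Mg-supplemented Mueller-Hinton for bacteria (~5 × 10^5 CFU/mL, 24 h), MOPS-buffered RPMI 1640 pH 7.0 for fungi (Candida ~2.5 × 10^4, Aspergillus 0.4-5 × 10^4 CFU/mL, 48 h), 35°C, 1% DMSO, 64 to 0.12 μg/mL. MIC read visually; MBC/MFC by plating clear wells.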

[2] = system: Aspergillus niger ATCC 16404; assay: as above; type: cell-based; conditions: for MIC / MFC: Aspergillus niger; for MIC: ATCC16404, 48 h, read-out: MIC, An ATCC 16404; for MIC / MIC, An ATCC 16404: broth microdilution, 35°C, 48 h; for MFC: ATCC16404, ≥99.9% reduction of original inoculum, read-out: MFC, An ATCC 16404
How it was run: as §1

[3] = system: Candida albicans ATCC 90028; assay: as above; type: cell-based; conditions: Candida albicans; for MIC: ATCC90028, 48 h, broth microdilution, 35°C, 48 h, read-out: MIC, Ca ATCC 90028; for MFC: ATCC90028, ≥99.9% reduction of original inoculum, read-out: MFC, Ca ATCC 90028
How it was run: as §1

[4] = system: Candida glabrata ATCC 90030; assay: as above; type: cell-based; conditions: Nakaseomyces glabratus; for MIC: ATCC90030, 48 h, broth microdilution, 35°C, 48 h, read-out: MIC, Cg ATCC 90030; for MFC: ATCC90030, ≥99.9% reduction of original inoculum, read-out: MFC, Cg ATCC 90030
How it was run: as §1

[5] = system: L. donovani promastigotes; assay: Dose-dependent anti-promastigote activity, IC50 and IC90; type: cell-based, Leishmania donovani; conditions: for Anti-leishmanial activity, in words (compounds with IC50 determined): L. donovani promastigotes
Protocol: (§2) L. donovani parasites (MHOM/IN/83/AG83) were maintained in vivo in BALB/c mice. Promastigotes were routinely cultured at 22°C in medium M199 supplemented with 10% heat inactivated fetal bovine serum (FBS, HiMedia Laboratories, Mumbai, India), penicillin 100 (IU/ml), streptomycin (100 μg/ml). Log phase promastigotes were sub-cultured every 72–96 h, the inoculum being 2 × 10^6 cells/ml (Afrin et al., [2002]).
AmB was used as a standard antileishmanial drug control. The cell viability was evaluated by microscopically and the mean percentage viability was calculated as follows: Mean cell number of treated parasites / Mean cell number of untreated parasites × 100. The 50 and 90% inhibitory concentration (IC50 and IC90) i.e., the concentration of drugs that decreased the cell growth by 50 and 90% respectively was determined by graphical extrapolation after plotting the graph of % viability vs. concentration of drug (Islamuddin et al., [2014b]).
(§3) In vitro antileishmanial activity was expressed as IC50 by linear regression analysis. Values are mean ± SE of samples in triplicate from at least three independent experiments. Statistical analysis was performed using ANOVA followed by Dunnett's test. ^*P < 0.05, ^**P < 0.01 and ^***P < 0.001 compared with the untreated control group were considered significant.

[6] = system: L. donovani promastigotes; assay: Leishmanicidal assay (growth reversion after wash-out); type: cell-based, Leishmania donovani; conditions: 1 μM, 72 h treatment, then 72 h in fresh media
Protocol: To confirm the leishmanicidal effect of compounds 9, 12, 14, and 18, treated and untreated parasites (1 μM) after 72 h of incubation, were washed two times with fresh incomplete medium and finally resuspended in complete media, transferred back to 22°C and allowed to grow for 72 h. The viability of the parasites was determined microscopically (Afrin et al., [2001]).

[7] = system: L. donovani intracellular amastigotes; assay: Anti-amastigote activity in ex vivo macrophage model; type: cell-based, Leishmania donovani; conditions: Leishmania donovani, Peritoneal macrophage, in Mus musculus; intracellular amastigotes in BALB/c peritoneal macrophages, 48 h; read-out: L. donovani amastigotes IC50 ± SEM
Text: BALB/c mice was used for the isolation of peritoneal macrophages in the ex vivo anti-amastigote study after prior approval from the Jamia Hamdard Animal Ethics Committee (JHAEC). JHAEC is registered under the Committee for the purpose of supervision and control of experiments on animals (CPCSEA). Mice were individually housed in the Central Animal House of Jamia Hamdard as per internationally accepted norms. The mice were kept in standard size polycarbonate cages under controlled conditions of temperature (23 ± 1°C), humidity (55 ± 10%), 12:12 h of light and dark cycle and fed with standard pellet diet and filtered water (ad libitum).
Macrophages from the peritonial cavity of BALB/c mice (1 × 10^6 cellsml^−1) were allowed to adhere to round glass coverslips in a 24 well tissue culture plate and incubated for 12 h at 37°C in a CO2 incubator. After removal of the non-adherent macrophages, the cells were infected with stationary phase promastigotes using a cell to parasite ratio of 1:10 and incubated at 37°C for 24 h. The non-phagocytosed parasites were removed by washing, and the infected macrophages incubated with the test compounds 9, 12, 14, and 18 (0–25 μM) for an additional 48 h. The coverslips were fixed in methanol and giemsa-stained for microscopic evaluation (100X) of amastigote infectivity. Number of amastigotes per 100 macrophages were enumerated and the concentration that decreased amastigotes by 50% (IC50) was determined (Wong et al., [2012]; Islamuddin et al., [2014a]).
as §3

[8] = system: Escherichia coli ATCC 25922; assay: Broth microdilution antibacterial susceptibility (MIC/MBC); type: cell-based; conditions: for MIC / MBC: Escherichia coli; for MIC: ATCC25922, 24 h, read-out: MIC, Ec ATCC 25922; for MIC / MIC, Ec ATCC 25922: broth microdilution, 35°C, 24 h; for MBC: ATCC25922, ≥99.9% reduction of original inoculum, read-out: MBC, Ec ATCC 25922
How it was run: as §1

[9] = system: Pseudomonas aeruginosa ATCC 27853; assay: as above; type: cell-based; conditions: for MIC / MBC: Pseudomonas aeruginosa; for MIC: ATCC27853, 24 h, read-out: MIC, Pa ATCC 27853; for MIC / MIC, Pa ATCC 27853: broth microdilution, 35°C, 24 h; for MBC: ATCC27853, ≥99.9% reduction of original inoculum, read-out: MBC, Pa ATCC 27853
How it was run: as §1

[10] = system: Staphylococcus aureus ATCC 29213; assay: as above; type: cell-based; conditions: for MIC / MBC: Staphylococcus aureus; for MIC: ATCC29213, 24 h, read-out: MIC, Sa ATCC 29213; for MIC / MIC, Sa ATCC 29213: broth microdilution, 35°C, 24 h; for MBC: ATCC29213, ≥99.9% reduction of original inoculum, read-out: MBC, Sa ATCC 29213
How it was run: as §1

[11] = system: Staphylococcus epidermidis ATCC 14990; assay: as above; type: cell-based; conditions: for MIC / MBC: Staphylococcus epidermidis; for MIC: ATCC14990, 24 h, read-out: MIC, Se ATCC 14990; for MIC / MIC, Se ATCC 14990: broth microdilution, 35°C, 24 h; for MBC: ATCC14990, ≥99.9% reduction of original inoculum, read-out: MBC, Se ATCC 14990
How it was run: as §1

[12] = system: L. donovani promastigotes; assay: Anti-leishmanial screening at 100 μM, parasite viability by microscopy; type: cell-based, Leishmania donovani; conditions: 100 μM, 72 h, phase contrast microscope
Protocol: as §2
Nitrostyrine series were screened for their antileishmanial activity against L. donovani promastigotes in vitro. Promastigotes of L. donovani (2 × 10^6 cells/mL) in M199 medium were incubated at 22°C for 72 h with each compound at a concentration of 100 μM. Amphotericin B (AmB) served as reference drug, 0.2% DMSO was used as solvent control. Parasites with media alone were taken as control. Parasite viability was determined microscopically after 72 h (Islamuddin et al., [2014b]).

[13] = Leishmania donovani, 72 h, 22°C, values given in μM, read-out: IC50 against promastigotes

| Compound | MIC [1] [µg/mL] | MFC [1] [µg/mL] | MIC [2] [µg/mL] | MFC [2] [µg/mL] | MIC [3] [µg/mL] | MFC [3] [µg/mL] | MIC [4] [µg/mL] | MFC [4] [µg/mL] | MIC [8] [µg/mL] | MBC [8] [µg/mL] | MIC, Ec ATCC 25922 [8] [µg/mL] | MIC [9] [µg/mL] | MBC [9] [µg/mL] | MIC, Pa ATCC 27853 [9] [µg/mL] | MIC [10] [µg/mL] | MBC [10] [µg/mL] | MIC [11] [µg/mL] | MBC [11] [µg/mL] | Parasite viability after treatment [12] | melting point [°C] | further results |
| --- | --- | --- | --- | --- | --- | --- | --- | --- | --- | --- | --- | --- | --- | --- | --- | --- | --- | --- | --- | --- | --- |
| C[C@@H]1[C@H](O)[C@@H](C)/C=C/C=C/C=C/C=C/C=C/C=C/C=C/[C@H](O[C@@H]2O[C@H](C)[C@@H](O)[C@H](N)[C@@H]2O)C[C@@H]2O[C@](O)(C[C@@H](O)C[C@@H](O)[C@H](O)CC[C@@H](O)C[C@@H](O)CC(=O)O[C@H]1C)C[C@H](O)[C@H]2C(=O)O [AmB, Amphotericin B, reference compound] | 0.5 (≈ 0.541 µM) | 1 (≈ 1.08 µM) | 1 (≈ 1.08 µM) | 1 (≈ 1.08 µM) | 0.5 (≈ 0.541 µM) | 0.5 (≈ 0.541 µM) | 0.5 (≈ 0.541 µM) | 0.5 (≈ 0.541 µM) | – | – | – | – | – | – | – | – | – | – | – | – | IC50 ([5]; Leishmania donovani, 72 h, 22°C, mean from three determinations, read-out: L. donovani promastigotes IC50 ± SEM): 0.0196 ± 0.00171 µM; IC90 ([5]; Leishmania donovani, 72 h, 22°C, mean from three determinations, read-out: L. donovani promastigotes IC90 ± SEM): 82.6 ± 1.36 nM; Leishmanicidal effect (reversion after wash and 72 h in fresh media) [6]: as also observed in positive drug control; IC50 [7]: 27.8 ± 3.26 nM |
| C/C(=C\c1cccc(O)c1)[N+](=O)[O-] [Compound 20, 3-((E)-2-nitroprop-1-enyl) phenol] | 4 to 8 (≈ 22.3 to 44.6 µM) | 8 (≈ 44.6 µM) | 2 to 4 (≈ 11.2 to 22.3 µM) | 4 (≈ 22.3 µM) | – | 16 (≈ 89.3 µM) | – | 8 (≈ 44.6 µM) | 16 to 32 (≈ 89.3 to 179 µM) | 16 (≈ 89.3 µM) | 16 (≈ 89.3 µM) | 16 to 32 (≈ 89.3 to 179 µM) | 32 (≈ 179 µM) | 16 (≈ 89.3 µM) | 2 to 32 (≈ 11.2 to 179 µM) | 4 (≈ 22.3 µM) | 2 to 16 (≈ 11.2 to 89.3 µM) | 2 (≈ 11.2 µM) | All the parasites were found to be dead | 96 to 98 | MIC, Sa ATCC 29213 [10]: 2 µg/mL (≈ 11.2 µM); MIC, Se ATCC 14990 [11]: 2 µg/mL (≈ 11.2 µM); MIC, Af ATCC 16424 [1]: 8 µg/mL (≈ 44.6 µM); MIC, An ATCC 16404 [2]: 4 µg/mL (≈ 22.3 µM); Anti-leishmanial activity, in words (compounds with IC50 determined) [5]: moderately active; IC50 [5, 13]: 63.2 ± 2.06 µM |
| CC/C(=C\c1cccc(O)c1)[N+](=O)[O-] [Compound 21, 3-((E)-2-nitrobut-1-enyl) phenol] | 4 to 8 (≈ 20.7 to 41.4 µM) | 8 (≈ 41.4 µM) | 2 to 4 (≈ 10.4 to 20.7 µM) | 8 (≈ 41.4 µM) | – | 32 (≈ 166 µM) | – | 16 (≈ 82.8 µM) | 16 to 32 (≈ 82.8 to 166 µM) | 64 (≈ 331 µM) | 32 (≈ 166 µM) | 16 to 32 (≈ 82.8 to 166 µM) | 64 (≈ 331 µM) | 32 (≈ 166 µM) | 2 to 32 (≈ 10.4 to 166 µM) | 4 (≈ 20.7 µM) | 2 to 16 (≈ 10.4 to 82.8 µM) | 2 (≈ 10.4 µM) | All the parasites were found to be dead | 82 to 84 | MIC, Sa ATCC 29213 [10]: 2 µg/mL (≈ 10.4 µM); MIC, Se ATCC 14990 [11]: 2 µg/mL (≈ 10.4 µM); MIC, Af ATCC 16424 [1]: 8 µg/mL (≈ 41.4 µM); MIC, An ATCC 16404 [2]: 4 µg/mL (≈ 20.7 µM); IC50 [5, 13]: 28.4 ± 3.11 µM |
| COc1ccc(/C=C(\C)[N+](=O)[O-])cc1OC [Compound 23, 1,2-dimethoxy-4-((E)-2-nitroprop-1-enyl) benzene] | 16 (≈ 71.7 µM) | 16 (≈ 71.7 µM) | 8 (≈ 35.8 µM) | 8 (≈ 35.8 µM) | 32 (≈ 143 µM) | 32 (≈ 143 µM) | 4 (≈ 17.9 µM) | 4 (≈ 17.9 µM) | > 64 | > 64 | – | > 64 | > 64 | – | 8 (≈ 35.8 µM) | 16 (≈ 71.7 µM) | 8 (≈ 35.8 µM) | 8 (≈ 35.8 µM) | All the parasites were found to be dead | 70 to 72 | Anti-leishmanial activity, in words (compounds with IC50 determined) [5]: moderate activity |
